{"source": "patent US9889101B2", "about": "“Therapeutic treatment of cancer and dysplasia of the cervix or vagina using estrogen antagonists” (Wisconsin Alumni Research Foundation, priority 2009, dated 2018)", "key": {"[1]": {"tested_on": "ER", "details": "undefined if not mentioned; cited from earlier work"}, "[2]": {"tested_on": "nontransgenic female mice", "test": "Uterine wet weight after one week of fulvestrant (dose finding)", "details": "two injections day 0 and day 3, uteri weighed day 7, normalized to body weight", "from_the_text": "The indicated dose was given to nontransgenic female mice by two injections at day 0 and day 3, and uteri were harvested and weighed at day 7. Uterine wet weight was normalized to body weight."}, "[3]": {"tested_on": "CVX1 human cervical cancer cells (ERα-positive)", "test": "Subcutaneous CVX1 tumors in nude mice", "format": "in vivo", "details": "estrogen-treated nude mice, fulvestrant 7.5 mg s.c. twice a week, two-week treatment period"}, "[4]": {"tested_on": "K14E6/K14E7 double transgenic mice", "test": "Prevention of cervical/vaginal cancer in E2-treated K14E6/K14E7 mice (preventive fulvestrant)", "method": "Mice. […] Experimental mice were generated by crossing K14E7 hemizygote and K14E6 homozygote mice. Female progenies were genotyped by PCR and a slow-releasing 17β-estradiol (E2) tablet (0.05 mg/60 days) (Innovative Research of America) was inserted subcutaneously under the dorsal skin every two months beginning at 4-6 weeks of age. After 6-month treatment with E2, one group of mice was sacrificed immediately to evaluate cancer phenotypes (6M E2 group), another group was maintained for another month without further treatment (6M E2+1M without fulvestrant group), and the third group was treated with fulvestrant for a month (6M E2+1M with fulvestrant group).\nFulvestrant treatment. Faslodex (50 mg/ml, human formulation of intramuscular injection of fulvestrant) was purchased from Astra Zeneca. Mice were subcutaneously injected with 0.15 ml (equivalent to 7.5 mg of fulvestrant) of Faslodex twice a week for a month (total of 9 injections)."}, "[5]": {"tested_on": "CaSki cervical cancer cell line (ERα-negative)", "test": "Subcutaneous CaSki tumors in nude mice", "format": "in vivo, human", "details": "estrogen-treated nude mice, with fulvestrant 7.5 mg s.c. twice a week"}, "[6]": {"tested_on": "K14E6/K14E7 double transgenic mice", "test": "Treatment of pre-existing cervical/vaginal cancer and dysplasia in estrogen-treated K14E6/K14E7 mice", "method": "Experimental mice were generated by crossing K14E7 hemizygote and K14E6 homozygote mice. Female progenies were genotyped by PCR and a slow-releasing 17β-estradiol (E2) tablet (0.05 mg/60 days) (Innovative Research of America) was inserted subcutaneously under the dorsal skin every two months beginning at 4-6 weeks of age. After 6-month treatment with E2, one group of mice was sacrificed immediately to evaluate cancer phenotypes (6M E2 group), another group was maintained for another month without further treatment (6M E2+1M without fulvestrant group), and the third group was treated with fulvestrant for a month (6M E2+1M with fulvestrant group).\nFaslodex (50 mg/ml, human formulation of intramuscular injection of fulvestrant) was purchased from Astra Zeneca. Mice were subcutaneously injected with 0.15 ml (equivalent to 7.5 mg of fulvestrant) of Faslodex twice a week for a month (total of 9 injections).\nMice were subsequently injected with fulvestrant as described in Materials and Methods. Reproductive tracts were harvested, fixed in para-formaldehyde (PFA), and embedded in paraffin. Every tenth 5 μM section was stained with H&E and histopathologically scored to identify the worst grade of cervical/vaginal disease present in each animal. […] EVISTA® tablets were purchased from Eli Lilly and Company, which are human formulation of raloxifene (60 mg/tablet). Tablets were resuspended in phosphate buffered saline at a final concentration of 10 mg/ml. K14E6/K14E7 double transgenic mice were treated with E2 for 6 months and subsequently with raloxifene for a month by intraperitoneally injecting them with 0.15 ml of raloxifene suspension (equivalent to 1.5 mg) 5 days a week."}, "[7]": {"details": "6M E2 + preventive fulvestrant (one month at the three-month time point), six-month endpoint"}, "[8]": {"details": "6M E2 + preventive fulvestrant, six-month endpoint"}, "[9]": {"details": "6M E2 + 1M fulvestrant 7.5 mg s.c. twice a week, 13 mice"}, "[10]": {"details": "6M estrogen then fulvestrant for two weeks"}, "[11]": {"details": "6M E2 + 1M raloxifene 1.5 mg i.p. 5 days a week"}}, "data": [{"smiles": "COc1ccc2c(c1)OC(C)(C)[C@@H](c1ccccc1)[C@@H]2c1ccc(OCCN2CCCC2)cc1", "note": "[Levormeloxifene]", "values": [{"measurement": "Effect in cervix, vagina and endometrium", "setting": "[1]", "value": "agonist in endometrium"}]}, {"smiles": "COc1ccc2c(c1)OC(C)(C)C(c1ccccc1)C2c1ccc(OCCN2CCCC2)cc1", "note": "(centres unmarked) [Ormeloxifene]", "values": [{"measurement": "Effect in cervix, vagina and endometrium", "setting": "[1]", "value": "antagonist in endometrium"}]}, {"smiles": "COc1ccc(-c2sc3cc(O)ccc3c2Oc2ccc(OCCN3CCCCC3)cc2)cc1", "note": "[Arzoxifene]", "values": [{"measurement": "Effect in cervix, vagina and endometrium", "setting": "[1]", "value": "antagonist in endometrium"}]}, {"smiles": "CC/C(=C(\\c1ccccc1)c1ccc(OCCN(C)C)cc1)c1ccccc1", "note": "[Tamoxifen]", "values": [{"measurement": "Effect in cervix, vagina and endometrium", "setting": "[1]", "value": "agonist in cervix, vagina,"}]}, {"smiles": "Oc1ccc2c(c1)CC[C@H](c1ccccc1)[C@@H]2c1ccc(OCCN2CCCC2)cc1", "note": "[Lasofoxifene]", "values": [{"measurement": "Effect in cervix, vagina and endometrium", "setting": "[1]", "value": "neutral in endometrium"}]}, {"smiles": "Cc1c(-c2ccc(O)cc2)n(Cc2ccc(OCCN3CCCCC3)cc2)c2ccc(O)cc12", "note": "[Pipendoxifene]", "values": [{"measurement": "Effect in cervix, vagina and endometrium", "setting": "[1]", "value": "antagonist in endometrium"}]}, {"smiles": "CC/C(=C(\\c1ccc(I)cc1)c1ccc(OCCN2CCCC2)cc1)c1ccccc1", "note": "[Idoxifene]", "values": [{"measurement": "Effect in cervix, vagina and endometrium", "setting": "[1]", "value": "agonist in endometrium"}]}, {"smiles": "CN(C)CCOc1ccc(/C(=C(/CCCl)c2ccccc2)c2ccccc2)cc1", "note": "[Toremifene]", "values": [{"measurement": "Effect in cervix, vagina and endometrium", "setting": "[1]", "value": "agonist in endometrium"}]}, {"smiles": "C[C@]12CC[C@@H]3c4ccc(O)cc4C[C@@H](CCCCCCCCC[S+]([O-])CCCC(F)(F)C(F)(F)F)[C@H]3[C@@H]1CC[C@@H]2O", "note": "(some centres unmarked) [fulvestrant]", "values": [{"measurement": "decrease in uterine wet weight", "setting": "[2]; fulvestrant 10 mg/week", "value": 50, "unit": "%"}, {"measurement": "reduction in uterine wet weight", "setting": "[2]; fulvestrant 15 mg/week", "value": 70, "unit": "%"}, {"measurement": "CVX1 tumor growth", "setting": "[3]", "value": "did not grow at all"}, {"measurement": "# mice with no dysplasia or cancer, Cervix", "setting": "[4]; [7]", "value": 6}, {"measurement": "# mice with no dysplasia or cancer, Vagina", "setting": "[4]; [7]", "value": 6}, {"measurement": "# mice w/ dysplasia only, CIN1", "setting": "[4]; [8]", "value": "0 (0)"}, {"measurement": "# mice w/ dysplasia only, CIN2", "setting": "[4]; [8]", "value": "0 (0)"}, {"measurement": "# mice w/ dysplasia only, CIN3", "setting": "[4]; [8]", "value": "0 (0)"}, {"measurement": "# mice w/ dysplasia only, VIN1", "setting": "[4]; [8]", "value": "0 (0)"}, {"measurement": "# mice w/ dysplasia only, VIN2", "setting": "[4]; [8]", "value": "0 (0)"}, {"measurement": "# mice w/ dysplasia only, VIN3", "setting": "[4]; [8]", "value": "0 (0)"}, {"measurement": "# mice w/cancer and dysplasia, Cervix", "setting": "[4]; [8]", "value": "0 (0)"}, {"measurement": "# mice w/cancer and dysplasia, Vagina", "setting": "[4]; [8]", "value": "0 (0)"}, {"measurement": "mice w/cancer and dysplasia (%), Cervix", "setting": "[4]; [8]", "value": "0 (0) %"}, {"measurement": "mice w/cancer and dysplasia (%), Vagina", "setting": "[4]; [8]", "value": "0 (0) %"}, {"measurement": "cervical disease at the six-month endpoint", "setting": "[4]; fulvestrant for one month at the three-month time point of E2 treatment", "value": "neither CIN nor cervical cancer"}, {"measurement": "CaSki tumor growth", "setting": "[5]", "value": 4.7, "unit": "fold"}, {"measurement": "number of mice with CIN1 as worst state (cervix)", "setting": "[6]; [9]", "value": "0 (0)"}, {"measurement": "number of mice with CIN2 as worst state (cervix)", "setting": "[6]; [9]", "value": "0 (0)"}, {"measurement": "number of mice with CIN3 as worst state (cervix)", "setting": "[6]; [9]", "value": "0 (0)"}, {"measurement": "number of mice with VIN1 as worst state (vagina)", "setting": "[6]; [9]", "value": "0 (0)"}, {"measurement": "number of mice with VIN2 as worst state (vagina)", "setting": "[6]; [9]", "value": "0 (0)"}, {"measurement": "number of mice with VIN3 as worst state (vagina)", "setting": "[6]; [9]", "value": "0 (0)"}, {"measurement": "number of mice with cervical cancer", "setting": "[6]; [9]", "value": "1 (1)"}, {"measurement": "number of mice with no dysplasia (worst state of disease)", "setting": "[6]; [9]", "value": 11}, {"measurement": "number of mice with vaginal cancer", "setting": "[6]; [9]", "value": "1 (1)"}, {"measurement": "Average size of the largest tumor", "setting": "[6]; 6M E2 + 1M with fulvestrant", "value": "0.02 ± 0.05^ mm^2"}, {"measurement": "Tumor multiplicity, Cervix", "setting": "[6]; 6M E2 + 1M with fulvestrant", "value": "0.2 ± 0.5"}, {"measurement": "Tumor multiplicity, Vagina", "setting": "[6]; 6M E2 + 1M with fulvestrant", "value": "0.1 ± 0.3"}, {"measurement": "dysplastic lesions (CIN and VIN) in lower reproductive tract", "setting": "[6]; 6M estrogen then fulvestrant for 1 month", "value": "absence of any grade of dysplastic lesions"}, {"measurement": "cancers in the lower reproductive tracts", "setting": "[6]; [10]", "value": "still had cancers"}, {"measurement": "dysplastic lesions in lower reproductive tract", "setting": "[6]; [10]", "value": "absent"}, {"measurement": "thickness of lower reproductive tract epithelia", "setting": "[6]; fulvestrant-treated mice", "value": "2-3 layers of cells"}, {"measurement": "mice in which cancers persisted after one-month fulvestrant", "setting": "[6]; of 13 mice, one cervical, one vaginal cancer", "value": 2}, {"measurement": "Effect in cervix, vagina and endometrium", "setting": "[1]", "value": "antagonist in cervix, vagina,"}]}, {"smiles": "O=C(c1ccc(OCCN2CCCCC2)cc1)c1c(-c2ccc(O)cc2)sc2cc(O)ccc12", "note": "[raloxifene]", "values": [{"measurement": "# mice w/ dysplasia only, CIN1", "setting": "[6]; [11]", "value": "0 (0)"}, {"measurement": "# mice w/ dysplasia only, CIN2", "setting": "[6]; [11]", "value": "0 (0)"}, {"measurement": "# mice w/ dysplasia only, CIN3", "setting": "[6]; [11]", "value": 0}, {"measurement": "# mice w/ dysplasia only, VIN1", "setting": "[6]; [11]", "value": "0 (0)"}, {"measurement": "# mice w/ dysplasia only, VIN2", "setting": "[6]; [11]", "value": "0 (0)"}, {"measurement": "# mice w/ dysplasia only, VIN3", "setting": "[6]; [11]", "value": 1}, {"measurement": "# mice w/cancer and dysplasia, Cervix", "setting": "[6]; [11]", "value": "0 (0)"}, {"measurement": "# mice w/cancer and dysplasia, Vagina", "setting": "[6]; [11]", "value": "0 (0)"}, {"measurement": "# mice with no dysplasia or cancer, Cervix", "setting": "[6]; [11]", "value": 7}, {"measurement": "# mice with no dysplasia or cancer, Vagina", "setting": "[6]; [11]", "value": 6}, {"measurement": "mice w/cancer and dysplasia (%), Cervix", "setting": "[6]; [11]", "value": "0 (0) %"}, {"measurement": "mice w/cancer and dysplasia (%), Vagina", "setting": "[6]; [11]", "value": "0 (0) %"}, {"measurement": "regression of cervical and vaginal disease including cancers", "setting": "[6]; 6M E2 then raloxifene 1.5 mg i.p. 5 days a week for a month", "value": "complete regression"}, {"measurement": "Effect in cervix, vagina and endometrium", "setting": "[1]", "value": "neutral in endometrium"}]}, {"smiles": "CC1=C(c2ccc(OC(=O)C(C)(C)C)cc2)[C@H](c2ccc(OCCN3CCCCC3)cc2)Oc2cc(OC(=O)C(C)(C)C)ccc21", "note": "[EM-800]", "values": [{"measurement": "Effect in cervix, vagina and endometrium", "setting": "[1]", "value": "antagonist in endometrium"}]}, {"smiles": "CC/C(=C(/c1ccc(OCCN(C)C)cc1)c1cccc(O)c1)c1ccccc1", "note": "[Droloxifene]", "values": [{"measurement": "Effect in cervix, vagina and endometrium", "setting": "[1]", "value": "agonist in endometrium"}]}]}
